According to publication PMC10787893, “Expression and characterization of the new antimicrobial peptide AP138L-arg26 anti Staphylococcus aureus” (Applied Microbiology and Biotechnology, 2024):
≈ marks a conversion by molar mass, not a printed value. Structures can show the parent of a compound that is named as a salt. Where two headings read alike, the source gives them in different places.

Key:
[1] = tested on: S. aureus CVCC 546; conditions: for FIC: FIC = MICc/MICa; for MICa: MIC of peptide/antibiotic alone, three parallel experiments
Procedure: The synergistic effects of AP138L-arg26 with different antibiotics were evaluated using a checkerboard assay. The synergistic effect was calculated using the FICI as follows: FICI = FIC of AP138L-arg26 + FIC of antibiotic; FIC = MICc/MICa, where MICc is the MIC of the peptide and antibiotic in combination, and MICa is the MIC of the peptide/antibiotic alone (Blier et al. [2010]). Three parallel experiments were performed for each group. The efficacy of combination therapy was defined as FICI ≤ 0.5, 0.5 < FICI ≤ 1, 1 < FICI ≤ 4, and FICI > 4 indicating synergy, addition, no difference, and antagonism, respectively.

[2] = tested on: S. aureus CVCC 546; test: Growth curve of S. aureus; assay type: cell-based, Staphylococcus aureus; conditions: AP138L-arg26 8 µg/mL (2 × MIC), ceftiofur sodium 0.25 µg/mL (1/8 MIC), alone or combined; 1 × 10^5 CFU/mL
Procedure: Samples were taken during the logarithmic growth of S. aureus and diluted to 1 × 10^5 CFU/mL (Delpech et al. [2019]). Different concentrations of AP138L-arg26, ceftiofur sodium, or a combination of them with an equal volume of bacteria were added to a 96-well microplate. The growth curves were recorded using a fully automatic growth curve recording instrument.

[3] = tested on: Streptococcus dysgalactiae CVCC 3938; test: MIC and MBC, broth microdilution; assay type: cell-based; conditions: Streptococcus dysgalactiae, CVCC3938
Procedure: (§1) To determine the MIC values of AP138L-arg26, we used the broth microdilution technique as previously described (Andrews. [2001]; Wiegand et al. [2008]). In brief, AP138L-arg26 peptide were diluted from 1280 to 2.5 µg/mL and added to a 96-cells plate with 10 µL per well. The bacteria in the logarithmic stage were diluted to 10^5 CFU/mL with 90 µL per well. […] The MBC method was also based on the CLSI 2021 guidelines.

[4] = tested on: Staphylococcus aureus CVCC 546; test: MIC and MBC, broth microdilution; assay type: cell-based; conditions: Staphylococcus aureus, CVCC546
Procedure: as §1

[5] = tested on: Staphylococcus aureus E48; test: MIC and MBC, broth microdilution; assay type: cell-based; conditions: Staphylococcus aureus, E48
Procedure: as §1

[6] = tested on: Staphylococcus aureus ATCC 25923; test: MIC and MBC, broth microdilution; assay type: cell-based; conditions: Staphylococcus aureus, ATCC25923
Procedure: as §1

[7] = tested on: Staphylococcus aureus ATCC 43300; test: MIC and MBC, broth microdilution; assay type: cell-based; conditions: Staphylococcus aureus, ATCC43300
Procedure: as §1

[8] = tested on: Staphylococcus epidermidis ATCC 35984; test: MIC and MBC, broth microdilution; assay type: cell-based; conditions: Staphylococcus epidermidis, ATCC35984
Procedure: as §1

[9] = tested on: Streptococcus agalactiae CAU-FRI-2022-01; test: MIC and MBC, broth microdilution; assay type: cell-based; conditions: Streptococcus agalactiae, CAUFRI202201
Procedure: as §1

[10] = tested on: Staphylococcus aureus CAAS-FRI-2023-02; test: MIC and MBC, broth microdilution; assay type: cell-based; conditions: Staphylococcus aureus
Procedure: as §1

[11] = tested on: Staphylococcus epidermidis ATCC 12228; test: MIC and MBC, broth microdilution; assay type: cell-based; conditions: Staphylococcus epidermidis, ATCC12228
Procedure: as §1

[12] = tested on: Streptococcus agalactiae CAU-FRI-2022-02; test: MIC and MBC, broth microdilution; assay type: cell-based; conditions: Streptococcus agalactiae, CAUFRI202202
Procedure: as §1

[13] = tested on: Streptococcus agalactiae ATCC 13813; test: MIC and MBC, broth microdilution; assay type: cell-based; conditions: Streptococcus agalactiae, ATCC13813
Procedure: as §1

[14] = tested on: Staphylococcus aureus CAAS-FRI-2023-01; test: MIC and MBC, broth microdilution; assay type: cell-based; conditions: Staphylococcus aureus
Procedure: as §1

[15] = tested on: S. aureus ATCC 43300; test: Post-antibiotic effect (PAE) assay; assay type: cell-based, Staphylococcus aureus; conditions: PAE = T − C
Source text: The method of PAE of AP138L-arg26 against MRSA ATCC 43300 or S. aureus CVCC 546 was described previously (Wang et al. [2018]). The formula is PAE = T − C (T is the time required for the number of colonies in the sample treatment group to increase by tenfold, and C is the time required for the untreated group).

[16] = 99.99% of bacteria killed, plated on MHA, read-out: MBC
[17] = broth microdilution, 10^5 CFU/mL, 37 °C, 18 h, read-out: MIC

CC1(C)S[C@@H]2[C@H](NC(=O)[C@H](N)c3ccccc3)C(=O)N2[C@H]1C(=O)O [Ampicillin] gave an FIC ([1]; combination AP138L-arg26-ampicillin) of 0.0625 and an MICc ([1]; in combination AP138L-arg26-ampicillin) of 0.0078 µg/mL.
In the case of CO/N=C(\C(=O)N[C@@H]1C(=O)N2C(C(=O)[O-])=C(CSC(=O)c3ccco3)CS[C@H]12)c1csc(N)n1.[Na+] [Ceftiofur sodium, ceftiofur sodium], the “effect on the growth of S. aureus CVCC 546” value [2] is reported as “little effect on the growth”, the FIC ([1]; combination AP138L-arg26-ceftiofur sodium) is reported as 0.25 and the MICc ([1]; in combination AP138L-arg26-ceftiofur sodium) is reported as 0.25 µg/mL.
Work on [H]/N=C(/N)N[C@H]1[C@H](O)[C@@H](O)[C@H](O[C@@H]2O[C@@H](C)[C@](O)(C=O)[C@H]2O[C@@H]2O[C@@H](CO)[C@H](O)[C@@H](O)[C@@H]2NC)[C@@H](N/C(N)=N\[H])[C@@H]1O [Streptomycin sulfate] yielded an FIC ([1]; combination AP138L-arg26-Streptomycin sulfate) of 0.5, an MICa [1] of 1 µg/mL and an MICc ([1]; in combination AP138L-arg26-Streptomycin sulfate) of 0.5 µg/mL.
For CN[C@H](CC(C)C)C(=O)N[C@H]1C(=O)N[C@@H](CC(N)=O)C(=O)N[C@H]2C(=O)N[C@H]3C(=O)N[C@H](C(=O)N[C@H](C(=O)O)c4cc(O)cc(O)c4-c4cc3ccc4O)[C@H](O)c3ccc(c(Cl)c3)Oc3cc2cc(c3O[C@@H]2O[C@H](CO)[C@@H](O)[C@H](O)[C@H]2O[C@H]2C[C@](C)(N)[C@H](O)[C@H](C)O2)Oc2ccc(cc2Cl)[C@H]1O [vancomycin, reference compound], the MBC [3, 16] was 2 µg/mL (≈ 1.38 µM), the MIC [3, 17] was 2 µg/mL (≈ 1.38 µM) and the MBC [4, 16] was 1 µg/mL (≈ 0.69 µM). It also gave an MIC [4, 17] of 1 µg/mL (≈ 0.69 µM), an MBC [5, 16] of 8 µg/mL (≈ 5.52 µM) and an MIC [5, 17] of 1 µg/mL (≈ 0.69 µM). It also gave an MBC [6, 16] of 2 µg/mL (≈ 1.38 µM), an MIC [6, 17] of 1 µg/mL (≈ 0.69 µM) and an MBC [7, 16] of 1 µg/mL (≈ 0.69 µM). The MIC [7, 17] was 1 µg/mL (≈ 0.69 µM), the MBC [8, 16] was 4 µg/mL (≈ 2.76 µM) and the MIC [8, 17] was 2 µg/mL (≈ 1.38 µM). For the same molecule, the MBC [9, 16] was 8 µg/mL (≈ 5.52 µM), the MIC [9, 17] was 2 µg/mL (≈ 1.38 µM) and the MBC [10, 16] was 8 µg/mL (≈ 5.52 µM). The MIC [10, 17] was 2 µg/mL (≈ 1.38 µM), the MBC [11, 16] was 4 µg/mL (≈ 2.76 µM) and the MIC [11, 17] was 2 µg/mL (≈ 1.38 µM). For the same molecule, the MBC [12, 16] was 4 µg/mL (≈ 2.76 µM), the MIC [12, 17] was 2 µg/mL (≈ 1.38 µM) and the MBC [13, 16] was 4 µg/mL (≈ 2.76 µM). For the same molecule, the MIC [13, 17] was 2 µg/mL (≈ 1.38 µM), the MBC [14, 16] was 2 µg/mL (≈ 1.38 µM) and the MIC [14, 17] was 1 µg/mL (≈ 0.69 µM). For the same molecule, the MICa [1] was 1 µg/mL, the PAE ([15]; 1 × MIC) was 0.27 h and the PAE ([15]; 2 × MIC) was 0.45 h. The PAE ([15]; 4 × MIC) was 1.18 h.
